The test system of test [1] is JAK1/TYK2 pSTAT5 (Tyr694/699) in THP-1 cell line. Nature of the test: IFNa-stimulated JAK1/TYK2 pSTAT5 (Tyr694/699) inhibition cellular assay, AlphaLISA. Type of test: cell-based. The note with it: THP-1 cells, IFNa-stimulated, AlphaLISA (Assay B), read-out: Cellular THP1_IFNa-pSTATS_IC50. In outline:
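pSTAT5 (Tyr694/699) in lysates quantified by AlphaLISA (615 nm) after 30 min IFNa stimulation (100 ng/mL stock) of THP-1 cells. The cells, 2e4 per well in HBSS, had first been exposed 1 h at 37° C. to eight 6-fold compound dilutions, 10000 down to 0.04 nM final. IC50 fitted by 4PL regression, bottom 0, Hill slope −1.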
A general note: In Alpha technology, singlet oxygen from a donor bead excites a nearby acceptor bead.

A further test deals with T1, TYK2 JH2 (Homo sapiens, UniProt P29597).
T1 construct: purchased DiscoverX (KINOMEscan KdELECT service); host or cells: E. coli BL21-derived (T7 phage display) or HEK-293
T1 sequence (P29597 589-875 limits assumed): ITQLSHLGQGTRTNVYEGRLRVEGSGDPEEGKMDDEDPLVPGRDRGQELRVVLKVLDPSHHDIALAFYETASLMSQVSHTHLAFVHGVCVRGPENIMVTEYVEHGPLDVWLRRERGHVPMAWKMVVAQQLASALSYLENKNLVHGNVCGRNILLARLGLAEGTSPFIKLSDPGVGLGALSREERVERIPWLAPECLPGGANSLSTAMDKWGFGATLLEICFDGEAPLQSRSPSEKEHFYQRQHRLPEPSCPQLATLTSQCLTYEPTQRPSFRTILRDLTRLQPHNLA
Briefly: TYK2 JH2 binding assay (KINOMEscan KdELECT competitive binding). The following applies: TYK2 JH2 domain, KINOMEscan KdELECT (Assay A); read-out: Biochemical TYK2_JH2_Kd. Summed up:
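Beads carrying a biotinylated ligand were mixed with tagged JH2 kinase and compound (11 points, 3-fold steps, 0.9% DMSO) and shaken 1 h at room temperature. After washing, kinase was released with 0.5 μM untagged ligand over 30 min and measured by qPCR to derive Kd.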

Our source for the IC50 and Kd values is US20240025906A1 (NEURON23, INC., priority 2022, published 2024).

Like-named read-outs stand apart in the source and are kept apart here. A value given as a limit tells only on which side of the number the result lay.

Take `CNc1ncc(-c2ccccc2)c2cc(NC(=O)C3(C)CC3)ncc12` [Example 101, 1-methyl-N-(8-(methylamino)-5-phenyl-2,7-naphthyridin-3-yl)cyclopropane-1-carboxamide]: the IC50 in test [1] (Homo sapiens) is above 500 nM. At TYK2 JH2, the Kd is at most 100 nM.

For the compound `CNc1ncc(-c2ccccc2)c2cc(NC(=O)C3CC3F)ncc12` (centres unmarked) [Example 103, 2-fluoro-N-(8-(methylamino)-5-phenyl-2,7-naphthyridin-3-yl)cyclopropane-1-carboxamide], in test [1] (Homo sapiens), the IC50 was above 500 nM. Further, the Kd on TYK2 JH2 is at most 100 nM.

Regarding `CNc1ncc(-c2ccccc2)c2cc(NC(=O)C3CC3F)ncc12` (centres unmarked) [Example 104, 2-fluoro-N-(8-(methylamino)-5-phenyl-2,7-naphthyridin-3-yl)cyclopropane-1-carboxamide], the IC50 in test [1] was above 500 nM. Further, the Kd at TYK2 JH2 is at most 100 nM.

On to `CNc1ncc(-c2ccccc2)c2cc(NC(=O)C3CC3(F)F)ncc12` (centres unmarked) [Example 105, 2,2-difluoro-N-(8-(methylamino)-5-phenyl-2,7-naphthyridin-3-yl)cyclopropane-1-carboxamide], for which the IC50 in test [1] (Homo sapiens) was above 500 nM. In addition, the Kd on TYK2 JH2 is at most 100 nM.

As to `CNc1ncc(-c2c[nH]c3ncccc23)c2cc(NC(=O)C3CC3)ncc12` [Example 106, N-(8-(methylamino)-5-(1H-pyrrolo[2,3-b]pyridin-3-yl)-2,7-naphthyridin-3-yl)cyclopropanecarboxamide], the IC50 in test [1] (Homo sapiens) was above 500 nM. For the same compound, on TYK2 JH2, the Kd is at most 100 nM.

Regarding `CNc1ncc(-c2ccc3c(c2)OCCO3)c2cc(NC(=O)C3CC3)ncc12` [Example 108, N-(5-(2,3-dihydrobenzo[b][1,4]dioxin-6-yl)-8-(methylamino)-2,7-naphthyridin-3-yl)cyclopropanecarboxamide], the IC50 in test [1] (Homo sapiens) is above 500 nM. The Kd at TYK2 JH2 was at most 100 nM.

Consider `CNc1ncc(-c2ccc(C(F)(F)F)cc2)c2cc(NC(=O)C3CC3)ncc12` [Example 109, N-(8-(methylamino)-5-(4-(trifluoromethyl)phenyl)-2,7-naphthyridin-3-yl)cyclopropanecarboxamide], for which the IC50 in test [1] (Homo sapiens) was above 500 nM. The Kd on TYK2 JH2 was at most 100 nM.

With `CNc1ncc(-c2ccc(OC(F)(F)F)cc2)c2cc(NC(=O)C3CC3)ncc12` [Example 110, N-(8-(methylamino)-5-(4-(trifluoromethoxy)phenyl)-2,7-naphthyridin-3-yl)cyclopropanecarboxamide], in test [1] (Homo sapiens), the IC50 is above 500 nM. The Kd at TYK2 JH2 was at most 100 nM.

As for `CNc1ncc(-c2ccc(OCC(F)(F)F)cc2)c2cc(NC(=O)C3CC3)ncc12` [Example 111, N-(8-(methylamino)-5-(4-(2,2,2-trifluoroethoxy)phenyl)-2,7-naphthyridin-3-yl)cyclopropanecarboxamide], the IC50 in test [1] (Homo sapiens) was above 500 nM. The Kd at TYK2 JH2 was at most 100 nM.

Turning to `CNc1ncc(-c2ccc(OC(F)F)cc2)c2cc(NC(=O)C3CC3)ncc12` [Example 112, N-(5-(4-(difluoromethoxy)phenyl)-8-(methylamino)-2,7-naphthyridin-3-yl)cyclopropanecarboxamide], the IC50 in test [1] (Homo sapiens) is above 500 nM. Also, the Kd on TYK2 JH2 was at most 100 nM.

For `CNc1ncc(-c2ccc(C3CC3)cc2)c2cc(NC(=O)C3CC3)ncc12` [Example 113, N-(5-(4-cyclopropylphenyl)-8-(methylamino)-2,7-naphthyridin-3-yl)cyclopropanecarboxamide], the IC50 in test [1] (Homo sapiens) is above 500 nM. Also, the Kd at TYK2 JH2 was at most 100 nM.

As for `CNc1ncc(-c2cc3ccccc3o2)c2cc(NC(=O)C3CC3)ncc12` [Example 114, N-(5-(benzofuran-2-yl)-8-(methylamino)-2,7-naphthyridin-3-yl)cyclopropanecarboxamide], the IC50 in test [1] (Homo sapiens) was at most 500 nM. The Kd at TYK2 JH2 was at most 100 nM.

Regarding `CNc1ncc(-c2cnn(CCOC)c2)c2cc(NC(=O)C3CC3)ncc12` [Example 115, N-(5-(1-(2-methoxyethyl)-1H-pyrazol-4-yl)-8-(methylamino)-2,7-naphthyridin-3-yl)cyclopropanecarboxamide], in test [1] (Homo sapiens), the IC50 is above 500 nM. Besides, the Kd at TYK2 JH2 was at most 100 nM.

In the case of `CNc1ncc(-c2cccc(F)c2)c2cc(NC(=O)C3CC3)ncc12` [Example 116, N-(5-(3-fluorophenyl)-8-(methylamino)-2,7-naphthyridin-3-yl)cyclopropanecarboxamide], the IC50 in test [1] (Homo sapiens) was above 500 nM. For the same compound, the Kd on TYK2 JH2 was at most 100 nM.

For the compound `CNc1ncc(-c2ccc(OC3CC3)cc2)c2cc(NC(=O)C3CC3)ncc12` [Example 117, N-(5-(4-cyclopropoxyphenyl)-8-(methylamino)-2,7-naphthyridin-3-yl)cyclopropanecarboxamide], the IC50 in test [1] (Homo sapiens) is above 500 nM. Moreover, the Kd on TYK2 JH2 is at most 100 nM.

`CNc1ncc(/C(C)=C/c2ccccc2)c2cc(NC(=O)C3CC3)ncc12` [Example 118, (E)-N-(8-(methylamino)-5-(1-phenylprop-1-en-2-yl)-2,7-naphthyridin-3-yl)cyclopropanecarboxamide]: the IC50 in test [1] (Homo sapiens) is at most 500 nM. Also, the Kd on TYK2 JH2 is at most 100 nM.

In the case of `CNc1ncc(-c2ccccc2COC)c2cc(NC(=O)C3CC3)ncc12` [Example 119, N-(5-(2-(methoxymethyl)phenyl)-8-(methylamino)-2,7-naphthyridin-3-yl)cyclopropanecarboxamide], the IC50 in test [1] (Homo sapiens) was above 500 nM. The Kd on TYK2 JH2 was at most 100 nM.

For `CNc1ncc(C(=O)O)c2cc(NC(=O)C3CC3)ncc12` [Example 120, 6-(cyclopropanecarboxamido)-1-(methylamino)-2,7-naphthyridine-4-carboxylic acid], the IC50 in test [1] (Homo sapiens) was above 500 nM. The Kd on TYK2 JH2 was in the range of 100 to 1000 nM.

With `CNC(=O)c1cnc(NC)c2cnc(NC(=O)C3CC3)cc12` [Example 124, 6-(cyclopropanecarboxamido)-N-methyl-1-(methylamino)-2,7-naphthyridine-4-carboxamide], in test [1] (Homo sapiens), the IC50 is above 500 nM. In addition, the Kd on TYK2 JH2 was at most 100 nM.

`C#Cc1cnc(NC)c2cnc(NC(=O)C3CC3)cc12` [Example 125, N-(5-ethynyl-8-(methylamino)-2,7-naphthyridin-3-yl)cyclopropanecarboxamide]: the IC50 in test [1] (Homo sapiens) is above 500 nM. At TYK2 JH2, the Kd is at most 100 nM.

On to `CNc1ncc(-c2cc(Br)no2)c2cc(NC(=O)C3CC3)ncc12` [Example 126, N-(5-(3-bromoisoxazol-5-yl)-8-(methylamino)-2,7-naphthyridin-3-yl)cyclopropanecarboxamide], for which, in test [1] (Homo sapiens), the IC50 was above 500 nM. Moreover, the Kd at TYK2 JH2 is at most 100 nM.

As for `CNc1ncc(C#CC(=O)C2CC2)c2cc(NC(=O)C3CC3)ncc12` [Example 127, N-(5-(3-cyclopropyl-3-oxoprop-1-yn-1-yl)-8-(methylamino)-2,7-naphthyridin-3-yl)cyclopropanecarboxamide], the IC50 in test [1] (Homo sapiens) was above 500 nM. Besides, the Kd at TYK2 JH2 is at most 100 nM.

As for `CCC(=O)c1cnc(NC)c2cnc(NC(=O)C3CC3)cc12` [Example 128, N-((methylamino)-5-propionyl-2,7-naphthyridin-3-yl)cyclopropanecarboxamide], the IC50 in test [1] (Homo sapiens) was above 500 nM. The Kd at TYK2 JH2 was at most 100 nM.

In the case of `C/C=C/c1cnc(NC)c2cnc(NC(=O)C3CC3)cc12` [Example 129, (E)-N-(8-(methylamino)-5-(prop-1-en-1-yl)-2,7-naphthyridin-3-yl)cyclopropanecarboxamide], the IC50 in test [1] (Homo sapiens) was above 500 nM. Also, on TYK2 JH2, the Kd was at most 100 nM.

On to `CNc1ncc(-c2cnc(C)o2)c2cc(NC(=O)C3CC3)ncc12` [Example 130, N-(8-(methylamino)-5-(2-methyloxazol-5-yl)-2,7-naphthyridin-3-yl)cyclopropanecarboxamide], for which the IC50 in test [1] (Homo sapiens) is above 500 nM. For the same compound, on TYK2 JH2, the Kd was at most 100 nM.

Regarding `CNc1ncc(-c2ccn(Cc3ccccc3)n2)c2cc(NC(=O)C3CC3)ncc12` [Example 131, N-(5-(1-benzyl-1H-pyrazol-3-yl)-8-(methylamino)-2,7-naphthyridin-3-yl)cyclopropanecarboxamide], the IC50 in test [1] (Homo sapiens) is above 500 nM. Besides, the Kd on TYK2 JH2 was at most 100 nM.

For `CNc1ncc(-c2ccc(OC3CCN(C)CC3)cc2)c2cc(NC(=O)C3CC3)ncc12` [Example 132, N-(8-(methylamino)-5-(4-((1-methylpiperidin-4-yl)oxy)phenyl)-2,7-naphthyridin-3-yl)cyclopropanecarboxamide], the IC50 in test [1] (Homo sapiens) was above 500 nM. Further, the Kd on TYK2 JH2 is at most 100 nM.

In the case of `CNc1ncc(-c2ncc(C)o2)c2cc(NC(=O)C3CC3)ncc12` [Example 133, N-(8-(methylamino)-5-(5-methyloxazol-2-yl)-2,7-naphthyridin-3-yl)cyclopropanecarboxamide], in test [1] (Homo sapiens), the IC50 was above 500 nM. The Kd at TYK2 JH2 is at most 100 nM.

With `CNc1ncc(Nc2ccccc2)c2cc(NC(=O)C3CC3)ncc12` [Example 134, N-(8-(methylamino)-5-(phenylamino)-2,7-naphthyridin-3-yl)cyclopropanecarboxamide], in test [1] (Homo sapiens), the IC50 is above 500 nM. Besides, at TYK2 JH2, the Kd was 100 to 1000 nM.

With `CNc1ncc(/C=C/c2ccc(OC)cc2)c2cc(NC(=O)C3CC3)ncc12` [Example 135, (E)-N-(5-(4-methoxystyryl)-8-(methylamino)-2,7-naphthyridin-3-yl)cyclopropanecarboxamide], the IC50 in test [1] (Homo sapiens) is at most 500 nM. The Kd on TYK2 JH2 was at most 100 nM.

Regarding `C=C(c1ccc(OC)cc1)c1cnc(NC)c2cnc(NC(=O)C3CC3)cc12` [Example 136], the IC50 in test [1] (Homo sapiens) was above 500 nM. Besides, the Kd at TYK2 JH2 was in the range of 100 to 1000 nM.
